# Assays:
# HIV-1IIIB [1] = assay: time-of-addition assay; format: cell-based; conditions: 2.5 μM added 8 hrs post-infection
# Procedure: (§1) Assessment of anti-HIV-1 infectivity. […] Reactions were terminated by addition of 1N H2SO4.
# MT-2 cells were incubated with HIV-1IIIB at 37° C. for 0, 1, 2, 3, 4, 6, and 8 hrs, respectively, before addition of the test compounds at 10 μg/ml. AZT (2.5 μM) was used as a control. After culture for another 2 hrs, the cells were washed to remove the free virus and compounds. The supernatants were collected on day 4 post-infection for measurement of p24 production.
# [2] = tested on: HIV-1NL4-3 pseudotyped viruses expressing HIV-1SF162 (R5) Env with U87-T4-CCR5 cells; assay: virus-cell fusion, luciferase assay; format: cell-based; conditions: HIV-1SF162 (R5) Env pseudotyped virus
# Procedure: Inhibition of virus-cell fusion. Inhibition of fusion of HIV-1NL4-3 pseudotyped viruses expressing envelope glycoprotein of the HIV-1HXB2 (X4) and HIV-1SF162 (R5) strains with U87-T4-CXCR4 and U87-T4-CCR5 cells, respectively, was measured as previously described (15). Briefly, 100 μl of U87-T4-CXCR4 and U87-T4-CCR5 cells, respectively, at 1×10^5 cells/ml were added to the wells of a 96-well tissue culture plate and cultured at 37° C. overnight. Fifty μl of a test compound at graded concentrations was mixed with 50 μl of the HIV-1NL4-3-luc viruses pseudotyped with the HIV-1HXB2 and HIV-1SF162 Env, prepared as described previously (15), at a final p24 concentration of 0.5 ng/ml in the presence of Polybrene (10 μg/ml). After incubation at 37° C. for 30 min, the mixtures were added to the cells and incubated at 37° C. overnight. The supernatants were removed and fresh culture medium was added. After incubation at 37° C. for 3 days, the cells were washed twice with PBS and lysed with the lysing reagent included in a luciferase assay kit (Promega, Corp., Madison, Wis.). The cell lysates were transferred to a 96-well flat-bottom luminometer plate (Costar, Corning Inc., Corning, N.Y.) and luciferase substrate (Promega) was added. The luciferase activity was measured immediately on a luminometer (Ultra 384, Tecan). The % inhibition and IC50 values were calculated as described above.
# [3] = target: gp41 six-helix bundle formed by N36 and C34 (Human immunodeficiency virus type 1 group M subtype B, UniProt P04578); conditions: for inhibitory activity on gp41 six-helix bundle formation (sandwich ELISA): graded concentrations, up to 80 μg/ml, compound preincubated with N36; for inhibition of six-helix bundle formation between N36 and C34 (screening ELISA): single dose 25 μg/ml
# gp41 six-helix bundle formed by N36 and C34, sequence (P04578 546-581): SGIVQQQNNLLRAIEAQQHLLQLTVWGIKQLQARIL
# Procedure: ELISA for screening for compounds that inhibit the gp41 six-helix bundle formation. A sandwich ELISA as previously described (23) was used to screen for compounds that inhibit the gp41 six-helix bundle formation. Briefly, peptide N36 (2 μM) was pre-incubated with a test compound at the indicated concentrations at 37° C. for 30 min, followed by addition of C34 (2 μM). In the control experiments, N36 was pre-incubated with C34 at 37° C. for 30 min, followed by addition of the test compound. After incubation at 37° C. for 30 min, the mixture was added to wells of a 96-well polystyrene plate (Costar, Corning Inc., Corning, N.Y.) which were precoated with IgG (2 μg/ml) purified from rabbit antisera directed against the N36/C34 mixture. […] Absorbance at 450 nm was measured using an ELISA reader (Ultra 384, Tecan, Research Triangle Park, N.C.). The percent inhibition by the compounds was calculated as previously described (18) and the concentration for 50% inhibition (IC50) was calculated using the software designated Calcusyn (7), kindly provided by Dr. T. C. Chou (Sloan-Kettering Cancer Center, New York, N.Y.).
# HIV-1IIIB [4] = assay: inhibition of HIV-1IIIB replication (p24 production) in MT-2 cells; format: cell-based; conditions: concentration up to 80 μg/ml
# Text: as §1
# [5] = tested on: H9/HIV-1IIIB cells cocultured with MT-2 cells; assay: syncytium-formation assay for screening HIV-1 fusion inhibitors; format: cell-based; conditions: single dose 25 μg/ml
# Text: Syncytium-formation assay for screening HIV-1 fusion inhibitors. […] HIV-1 induced syncytium formation was observed under an inverted microscope and scored as “−” (no syncytium was observed), “±” (about 50% syncytia were inhibited), and “+” (no syncytium formation was inhibited). The compounds scored with “−” and “±” were selected for further screening by ELISA for inhibitors against the gp41 six-helix bundle formation.
# [6] = tested on: MT-2 & H9/HIV-1IIIB (clade B, X4); assay: cell-cell fusion, dye transfer assay; format: cell-based; conditions: H9/HIV-1IIIB with MT-2 cells
# Procedure: Inhibition of cell-cell fusion. A dye transfer assay was used for detection of HIV-1 mediated cell fusion as previously described (21, 24, 34). H9/HIV-1IIIB cells were labeled with a fluorescent reagent, Calcein-AM (Molecular Probes, Inc., Eugene, Oreg.) and then incubated with MT-2 cells (ratio=1:5) in 96-well plates at 37° C. for 2 hrs in the presence or absence of compounds tested. The fused and unfused Cacein-labeled HIV-1-infected cells were counted under an inverted fluorescence microscope (Zeiss, Germany) with an eyepiece micrometer disc. The percentage of inhibition of cell fusion and the IC50 values were calculated as previously described (21).
# gp120-CD4 binding = target: T1, gp120-CD4 binding (Human immunodeficiency virus type 1 group M subtype B, UniProt P03375); set-up: species or system HIV-1; conditions: 10 μg/ml
# T1 construct: purchased Immunodiagnostics, Woburn, Mass; (gp120); Genentech Inc., South San Francisco, Calif; (sCD4)
# Procedure: Inhibition of gp120 binding to CD4. Wells of polystyrene plates was coated with 100 μl of sheep anti-gp120 antibody D7324 (Cliniqa, Fallbrook, Calif.) at 2 μg/ml in carbonate buffer (pH 9.6) at 4° C. overnight and blocked with 1% dry fat-free milk in PBS at 37° C. for 1 h. One hundred microliters of recombinant gp120 molecule (Immunodiagnostics, Woburn, Mass.) at 0.5 μg/ml in PBS was added and incubated at 37° C. for 1 h, followed by three washes with PBS-T. Soluble CD4 (sCD4) at 0.25 μg/ml was added in the presence of a compound (25 μM) and incubated at 37° C. for 1 h. After three washes, rabbit anti-sCD4 IgG (0.25 μg/ml in PBS, 100 μl/well) was added and incubated at 37° C. for 1 h. Binding of rabbit anti-sCD4 IgG was determined by sequential addition of biotinylated goat-anti-rabbit IgG, SA-HRP, and TMB. After the reactions were terminated, absorbance at 450 nm was recorded in an ELISA reader (Tecan).
# HIV-1 envelope glycoprotein gp120 was captured by the anti-gp120 antibody coated onto wells of polystyrene plates. […] After extensive washes, CD4 molecule bound to gp120 was quantitated by ELISA using anti-CD4 antibody.
# CXCR4 = target: T2, CXCR4 (Homo sapiens, UniProt P61073); assay: inhibition of anti-CXCR4 antibody 12G5 binding to CXCR4-expressing cells, cell-based ELISA; conditions: 25 μM
# T2 construct: expressed in transfected cells; host or cells: U373-MAGI-CXCR4CEM cells
# T2 sequence (P61073 whole entry): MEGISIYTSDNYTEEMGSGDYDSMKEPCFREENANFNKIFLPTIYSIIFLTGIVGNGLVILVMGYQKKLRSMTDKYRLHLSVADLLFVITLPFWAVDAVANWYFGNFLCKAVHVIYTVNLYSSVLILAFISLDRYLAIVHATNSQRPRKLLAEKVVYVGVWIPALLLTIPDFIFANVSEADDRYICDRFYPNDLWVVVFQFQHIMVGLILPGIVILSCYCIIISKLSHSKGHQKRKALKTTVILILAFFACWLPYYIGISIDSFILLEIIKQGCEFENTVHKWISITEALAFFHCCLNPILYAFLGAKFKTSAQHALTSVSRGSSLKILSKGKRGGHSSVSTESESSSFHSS
# Procedure: Inhibition of anti-CXCR4 antibody binding to CXCR4-expressing cells. The inhibition of the binding of anti-CXCR4 antibody to CXCR4-expressing cells was determined using a cell-based ELISA as described previously (52). Briefly, U373-MAGI-CXCR4CEM cells (1×10^5/well) which express CXCR4 molecules were cultured in a 96-well plate at 37° C. overnight. The cells were fixed with 5% formaldehyde at room temperature for 15 min and washed with PBS-T. The cells were incubated with anti-CXCR4 mAb 12G5 at 37° C. for 1 h in the presence or absence of compounds tested. Isotype IgG2a was used as a control.
Compound,inhibitory activity on virus-cell fusion [2],inhibitory activity on gp41 six-helix bundle formation (sandwich ELISA) [3],inhibition of six-helix bundle formation between N36 and C34 (screening ELISA) [3],inhibitory activity on HIV-1IIIB replication (HIV-1IIIB [4]),inhibition of HIV-1 mediated syncytium formation [5],inhibitory activity on cell-cell fusion [6],further results
"Cc1cn([C@H]2C[C@H](N=[N+]=[N-])[C@@H](CO)O2)c(=O)[nH]c1=O [AZT, reference compound]",–,–,–,–,–,–,"inhibition of HIV-1 replication, time of addition (HIV-1IIIB [1]): still effective"
"Cc1ccc(C)n1-c1cccc(O)c1 [NB-177, reference compound]",no inhibitory activity,no inhibitory activity,no inhibitory activity,no inhibitory activity,no inhibitory activity,no inhibitory activity,–
"Clc1ccc(-n2cccc2)cc1 [NB-178, reference compound]",no inhibitory activity,no inhibitory activity,no inhibitory activity,no inhibitory activity,no inhibitory activity,no inhibitory activity,–
"CN1C(=O)[C@@H](c2cc(Cl)c(O)c(Cl)c2)NC(=O)[C@@H]2NC(=O)[C@@H](c3cc(Cl)c(O)c(Cl)c3)NC(=O)[C@H](NC(=O)C(=O)c3cc(Cl)c(O)c(Cl)c3)Cc3c[nH]c4c(cccc34)-c3cc2cc(c3O)Oc2ccc(cc2)C[C@H]1C(=O)N[C@@H](C(=O)O)c1ccc(O)cc1 [chloropeptin, reference compound]",–,–,–,–,–,–,inhibition of gp120-CD4 binding (gp120-CD4 binding): markedly inhibited
"[Tyr-5,12, Lys-7]polyphemusin II [Example T22, reference compound]",–,–,–,–,–,–,inhibition of 12G5 binding to U373-MAGI-CXCR4CEM cells (CXCR4): significantly inhibited
